Source: patent publication US20240390513A1, “PHARMACEUTICAL COMPOSITION FOR TREATING INFLAMMATORY DISEASES” (INDUSTRY FOUNDATION OF CHONNAM NATIONAL UNIVERSITY, priority 2021, published 2024)

Test system: HK-2 cells
Experiment: Cellular uptake (fluorescence microscope, FACS, ICP-MS)
Type: cell-based, human
Settings: 4 hours, non-ROS conditions
Experimental: For uptake studies, HK-2 cells (3×10^4 cells/well) were seeded onto Lab-Tek® Chamber Slides and cultured overnight. […] Untreated cells were used as a control. After incubation, the medium was aspirated, followed by performing DPBS wash and 4% paraformaldehyde (PFA) fixation. The cells were then counterstained with 4′,6-diamidino-2-phenylindole (DAPI). A fluorescence intensity of IR780 was analyzed by fluorescence microscope (Evos FL Auto 2, Thermo Fisher Scientific) to determine IR780 uptake by cells. To confirm the effect of ROS on intracellular distribution and release, ROS conditions were mimicked by treating the cells with 200 μM H2O2 for 2 hours or culturing the cells in a hypoxia chamber for 2 days before treatment. Cellular uptake was further quantified by flow cytometry. Briefly, 1×10^5 HK-2 cells/well were seeded in a 12-well plate and incubated overnight. The medium was aspirated, another sample was added and incubated for 4 hours. […] The cells were then re-suspended in FACS buffer containing 3% FBS, and fluorescence-activated cell sorting (FACS) was performed to determine the uptake capacity of each group. […] The cellular uptake of the final PTC-M nanocomposite was determined by ICP-MS analysis. […] Aqua regia (1 ml) was added to the final pellets for digestion, then the sample was diluted and analyzed for manganese content by ICP-MS. […]

IR780 iodide
cellular uptake (IR780 fluorescence, microscope): higher uptake rate regardless of nanomicelle loading
